Assay results reported in patent US20040029244A1, “Phospholipase d effectors for therapy and screening” (priority 2003, published 2004).
Starred links: 1 amine or outer side, 2 acyl side, 3 side chain; linkers in the order of their positions; H or OH if unused. Positions of bridges follow the written chain, without caps; N, C: chain ends. Non-standard residues stand in square brackets, D forms with d. Residues, ends and D or L forms follow the SMILES beside them. Chains are numbered I, II in the order given. Actinocin(9to1) = Cc1c2oc3c(C)ccc(C(=O)[*:1])c3nc-2c(C(=O)[*:2])c(N)c1=O; NMeV = CN[C@H](C(=O)O)C(C)C; Sar = CNCC(=O)O

Experiments:
Assay type in all cases: cell-based, human
[1] = tested on: MMP-9 expression in HT 1080 cells; assay: Cell lysis and immunoblotting with rabbit anti MMP-9; details: 7.5 h
Experimental: FIG. 6. Phophatidic acid mediates protein kinase C induction of MMP-9 expression. A, Overnight serum-deprived cells were incubated in freshly added DMEM, 0.1% BSA containing either 100 nM PMA or 80 ? g/ml DDPA. B. Overnight serum-deprived cells were incubated in freshly added DMEM, 0.1% BSA containing 0.5% of either 1-propanol or 2-propanol for control. Following 7.5 h incubation cells were lysed with RIPA buffer and 15 ? g whole cell lysate were subjected to SDS-PAGE and immunoblotting with rabbit anti MMP-9. Immunoreactive bands were visualized using the ECL reaction. The data shown are representative of three independent experiments.
Cell lysis and immunoblotting Overnight serum-deprived cells in 60 mm plates were washed with PBS and then lysed with 750 μl RIPA^− buffer (1% NP-40, 0.1% SDS, 100 mM NaF, 10 mM Na pyrophosphate, 2.5 mM Na3VO4 in PBS). RIPA^− soluble fraction was separated from the non-solube fraction by 15 min centrifugation in a bench top microcentrifuge at 14,000 rpm at 4° C. Protein samples (15 μg) were analyzed after SDS-polyacrylamide gel electrophoresis (SDS-PAGE) by immunoblotting with rabbit anti MMP-9 or anti actin diluted according to manufacturer instructions in PBS, 0.5% Tween 20 and 5% dry milk powder and with horseradish peroxidase-labeled secondary antibody. Immunoreactive bands were visualized by the enhanced chemiluminescence (ECL) reaction.

[2] = tested on: MMP-9 secretion from HT 1080 cells; assay: MMP-9 secretion and activity assay (zymogram gels of cell medium); details: for MMP-9 secretion in response to various PMA concentrations at 133 mM alcohol: 133 mM alcohol 45 min before PMA, FIG. 4B; for effect on PMA-induced MMP-9 secretion at 200 mM alcohol: 200 mM alcohol 45 min before 100 nM PMA
Experimental: FIG. 4. […] Overnight serum-deprived cells were incubated in freshly added DMEM, 0.1% BSA. A, the indicated concentrations of either 2-propanol or 1-propanol were then added. After 45 min, 100 nM PMA-was added and cells were incubated for 7.5 h after which media samples (5 ? l) were analyzed for MMP-9 secretion. B, the cells were incubated with 133 mM 2-propanol or 1-propanol for 45 min. PMAa was then introduced to give the indicated concentrations. The cells were incubated for 7.5 h after which 5 ? l media samples were analyzed for MMP-9 secretion. The data shown are representative of three independent experiments. […]
MMP-9 secretion and activity assay Before assay, the cell medium was replaced with fresh DMEM, 0.1% BSA containing, unless otherwise described, 100 nM PMA. In experiments involving inhibition with BFA, it was added 30 min before induction with PMA. Medium samples were collected after 7.5 h and loaded with non-reducing sample buffer (2% SDS, 10% glycerol in 62.5 mM Tris pH 6.8) on zymogram gels. Before developing, gels were rinsed for 30 min in renaturing buffer and then 30 min in developing buffer at room temperature. Gels were incubated in fresh developing buffer for 18 h at 37° C. MMP-9 activity was indicated by the clear 92 kDa band that appeared after staining with Coomassie brilliant blue and removing excess dye by an 18 h rinse in water. Gels were dried and scanned and then the image was inverted (clear to black and black to clear).

[3] = tested on: PLD in HT 1080 cells; assay: In vivo PLD assay ([3H]phosphatidylbutanol formation in labeled cells)
Experimental: FIG. 2. Activation of PLD in PMA-treated HT 1080 cells. The cells, at their log phase of growth, were serum deprived and labeled with […] [^3H]myristic acid. Following washing and preincubation with DMEM, 0.1% BSA, 0.3% 1-butanol for 20 min, and 100 nM PMA were added, and cells were incubated for the indicated times at 37° C. Lipids were extracted and analyzed, and the production of labelled phosphatidylbutanol ([^3H]PtdBut) was measured as described under “Materials and Methods”. The values obtained for [^3H]PtdBut were normalized by dividing the measured counts/min by counts/min in the total lipid fraction. Data are expressed as the mean±S.E. of the fold activation in three independent experiments performed in triplicates.
In vivo PLD assay Serum-deprived cells were labeled for 18 h with 1 μCi/ml [^3H]myristic acid and were washed with DMEM, 0.1% BSA. Following 20 min preincubation in DMEM, 0.1% BSA, 0.3% 1-butanol, the cells were stimulated with, unless otherwise described, 100 nM PMA for 20 min. Cells were washed with phosphate saline buffer (PBS) (2.68 mM KC1, 1.47 mM KH2PO4, 8.05 mM Na2PO4, 137 mM NaC1), 0.1% BSA, scraped with 1 ml ice cold CH3OH and transferred into glass tubes. CHC13 and 0.1 N HC1 were added to a final ratio of 1:1:1. The lipid-containing lower phase was collected, dried and dissolved in 30 μl CH3OH, CHC13 (1:1). The samples were loaded on a TLC plate which was developed in the lower phase of H2O, ethylacetate, acetic acid and iso-octane (100:110:20:50 respectively). Tritiated phosphatidylbutanol (PdtBut) was measured after scraping the band corresponding to the PtdBut standard (Avanti Polar Lipids).

**Q.** With phosphatidic acid [PA] as the compound, how does the “induction of MMP-9 expression (immunoblot)” value ([1]; HT 1080 cells, 80 μg/ml DDPA, FIG. 6A) read?
**A.** Its value is “induces de novo MMP-9 expression”.

**Q.** How did the “MMP-9 secretion in response to various PMA concentrations at 133 mM alcohol” value ([2]; 7.5 h) turn out when `CC(C)O` [2-propanol] was run?
**A.** Its value is “continues to be dose-dependent”.

**Q.** What about the “effect on PMA-induced MMP-9 secretion at 200 mM alcohol” value ([2]; 7.5 h, FIG. 4A) of the same compound?
**A.** The value was “inhibitory”.

**Q.** `Cn1cc(C2=C(c3cn(CCCSC(=N)N)c4ccccc34)C(=O)NC2=O)c2ccccc21` [Ro 31-8220] was tested. Which “effect on PMA-induced MMP-9 secretion” value ([2]; 5 μM inhibitor preincubated 1 h, then 100 nM PMA, 7.5 h, FIG. 1C) did it give?
**A.** Its value is “inhibition of secretion”.

**Q.** With `CCCCCCCCCCCCCC(=O)O[C@@H]1[C@@H](C)[C@@]2(O)[C@@H](C=C(CO)C[C@]3(O)C(=O)C(C)=C[C@@H]23)[C@@H]2C(C)(C)[C@]12OC(C)=O` [PMA, phorbol 12-myristate 13-acetate] as the compound, how does the “MMP-9 activity accumulating in the medium of treated cells” value ([2]; HT 1080 cells, 100 nM PMA, various times up to 7.5 h) read?
**A.** The value was “time-dependent manner”.

**Q.** And the “lowest concentrations at which MMP-9 secretion is detected” value ([2]; HT 1080 cells, 7.5 h, FIG. 1B)?
**A.** The value was 0.5 to 1 nM.

**Q.** And the “time at which PtdBut formation (PLD activity) reaches a maximum” value ([3]; 100 nM PMA, 0.3% 1-butanol, FIG. 2)?
**A.** Its value is 90 min.

**Q.** And the “concentration at which the PLD response is detectable” value ([3]; HT 1080 cells, data not shown)?
**A.** Its value is 1 nM.

**Q.** What about the “concentration at which the PLD response is maximal” value ([3]; HT 1080 cells, data not shown) of the same compound?
**A.** The value was 100 nM.

**Q.** With `Cc1c2oc3c(C)ccc(C(=O)N[C@@H]4C(=O)N[C@H](C(C)C)C(=O)N5CCC[C@H]5C(=O)N(C)CC(=O)N(C)[C@@H](C(C)C)C(=O)O[C@@H]4C)c3nc-2c(C(=O)N[C@@H]2C(=O)N[C@H](C(C)C)C(=O)N3CCC[C@H]3C(=O)N(C)CC(=O)N(C)[C@@H](C(C)C)C(=O)O[C@@H]2C)c(N)c1=O` [ActD, actinomycin D] (I: T[dV]P[Sar][NMeV] / II: T[dV]P[Sar][NMeV]; ester I:1-I:C, II:1-II:C; linker I:N-II:N via Actinocin(9to1)) as the compound, how does the “effect on MMP-9 secretion induced with phosphatidic acid” value ([2]; 10 μg/ml ActD 45 min, then 80 μg/ml DDPA, 7.5 h, FIG. 5) read?
**A.** Its value is “fully decreased”.

**Q.** For `CCCO` [1-propanol], which “effect on PMA-induced MMP-9 secretion at 100 mM alcohol” value ([2]; 100 mM alcohol 45 min before 100 nM PMA, 7.5 h, FIG. 4A) is on record?
**A.** Its value is “inhibited”.

**Q.** And the “MMP-9 secretion in response to various PMA concentrations at 133 mM alcohol” value ([2]; 7.5 h)?
**A.** The value was “almost totally suppressed”.

**Q.** What about the “effect on PMA-induced MMP-9 secretion at 200 mM alcohol” value ([2]; 7.5 h, FIG. 4A) of the same compound?
**A.** Its value is “almost absolute suppression”.

**Q.** And the “MMP-9 expression in PMA-treated cells (immunoblot)” value ([1]; 0.5% alcohol pretreatment, PMA, whole cell lysate, FIG. 6)?
**A.** The value was “suppressed”.

**Q.** How did the “induction of MMP-9 secretion” value ([2]; HT 1080 cells, various concentrations, 7.5 h, FIG. 3) turn out when diodecanoylphosphatidic acid [DDPA] was run?
**A.** Its value is “induces MMP-9 secretion in a dose-dependent manner”.
